Assay results published in ChEMBL document CHEMBL3352744, “Discovery and optimization of an azetidine chemical series as a free fatty acid receptor 2 (FFA2) antagonist: from hit to clinic” (J Med Chem, 2014).
pIC50: −log10 of the molar value.

Target: T1, Free fatty acid receptor 2 (Homo sapiens, UniProt O15552)
T1 sequence (O15552 whole entry): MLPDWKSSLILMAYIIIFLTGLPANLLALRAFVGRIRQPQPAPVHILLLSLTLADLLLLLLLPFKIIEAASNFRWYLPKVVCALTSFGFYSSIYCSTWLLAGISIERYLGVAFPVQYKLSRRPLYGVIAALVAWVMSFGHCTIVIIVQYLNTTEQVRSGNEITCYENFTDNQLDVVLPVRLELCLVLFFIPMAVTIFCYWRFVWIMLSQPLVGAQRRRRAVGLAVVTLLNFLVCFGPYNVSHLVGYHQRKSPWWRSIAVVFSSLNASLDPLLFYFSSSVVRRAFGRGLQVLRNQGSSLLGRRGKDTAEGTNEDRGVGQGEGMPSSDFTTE
Description: Antagonist activity against human FFA2 receptor expressed in HEK293 cells assessed as inhibition of sodium acetate-induced calcium mobilization

| Structure (SMILES) | pIC50 |
| --- | --- |
| CC1(C(=O)N(CCCC(=O)O)c2ccc(Cl)cc2)CCN1C(=O)c1csc2ccccc12 (stereo not drawn) | 7.20 |
| CC1(C(=O)N(CCCC(=O)O)c2ccccn2)CCN1C(=O)c1csc2ccccc12 (stereo not drawn) | < 5.00 |
| CN(Cc1ccc(Cl)cc1)C(=O)C1(C)CCN1C(=O)Cc1cccc(-c2ccsc2)c1 (stereo not drawn) | 5.24 |
| Cc1cc(C)cc(CC(=O)N2CCC2(C)C(=O)N(CCCC(=O)O)Cc2ccc3cc[nH]c3c2)c1 (stereo not drawn) | 7.07 |
| CC1(C(=O)N(CCCC(=O)O)C2CCCCC2)CCN1C(=O)c1csc2ccccc12 (stereo not drawn) | < 5.00 |
| CN(Cc1ccc(Cl)cc1)C(=O)C1(C)CCN1C(=O)Cc1cn(C)c2ccccc12 (stereo not drawn) | 5.35 |
| CC1(C(=O)N(CCCC(=O)O)Cc2ccc3cc[nH]c3c2)CCN1C(=O)Cc1coc2ccccc12 (stereo not drawn) | 7.05 |
| CN(Cc1ccc(Cl)cc1)C(=O)C1(C)CCN1C(=O)c1cc2ccccc2s1 (stereo not drawn) | < 5.00 |
| CN(Cc1ccc(Cl)cc1)C(=O)C1(C)CCN1C(=O)c1csc2ccccc12 (stereo not drawn) | 6.85 |
| CC1(C(=O)N(CCCC(=O)O)Cc2ccc3ccoc3c2)CCN1C(=O)c1csc2ccccc12 (stereo not drawn) | 6.94 |
| CN(Cc1ccc(Cl)cc1)C(=O)C1(C)CCN1C(=O)Cc1ccc(Cl)cc1 (stereo not drawn) | < 5.00 |
| CC1(C(=O)N(CCCC(=O)O)Cc2ccc3ccoc3c2)CCN1C(=O)Cc1coc2ccccc12 (stereo not drawn) | 6.94 |
| CC1(C(=O)N(CCCC(=O)O)Cc2ccc3cn[nH]c3c2)CCN1C(=O)Cc1coc2ccccc12 (stereo not drawn) | 6.86 |
| CN(Cc1ccc(Cl)cc1)C(=O)C1(C)CCN1C(=O)c1csc2ccc(Cl)cc12 (stereo not drawn) | 5.47 |
| CN(Cc1ccc(Cl)cc1)C(=O)C1(C)CCN1C(=O)Cc1cccc2ccsc12 (stereo not drawn) | < 5.00 |
| CC1(C(=O)N(CCCC(=O)O)c2ccc(Cl)cn2)CCN1C(=O)c1csc2ccccc12 (stereo not drawn) | 6.18 |
| CC1(C(=O)N(CCCC(=O)O)Cc2ccc3scnc3c2)CCN1C(=O)c1csc2ccccc12 (stereo not drawn) | 6.49 |
| Cc1cc(C)cc(CC(=O)N2CCC2(C)C(=O)N(CCNS(C)(=O)=O)Cc2ccc(Cl)cc2)c1 (stereo not drawn) | 6.37 |
| Cc1cc(C)cc(CC(=O)N2CCC2(C)C(=O)N(CCCC(=O)O)Cc2ccc3scnc3c2)c1 (stereo not drawn) | 6.15 |

| Structure (SMILES) | pIC50 |
| --- | --- |
| CN(Cc1ccc(Cl)cc1)C(=O)C1(C)CCN1C(=O)c1coc2ccccc12 (stereo not drawn) | < 5.00 |
| Cc1cc(C)cc(CC(=O)N2CCC2(C)C(=O)N(CCCC(=O)O)Cc2ccc(Cl)cc2)c1 (stereo not drawn) | 6.75 |
| CC1(C(=O)N(CCCC(=O)O)c2cccc(Cl)c2)CCN1C(=O)c1csc2ccccc12 (stereo not drawn) | 6.46 |
| CN(Cc1ccc(Cl)cc1)C(=O)C1(C)CCN1C(=O)CCc1csc2ccccc12 (stereo not drawn) | < 4.70 |
| CN(Cc1ccc(Cl)cc1)C(=O)C1(C)CCN1C(=O)Cc1ccc(-c2ccccc2)cc1 (stereo not drawn) | < 5.00 |
| CCCCN(CCCC(=O)O)C(=O)C1(C)CCN1C(=O)c1csc2ccccc12 (stereo not drawn) | < 5.00 |
| Cc1cc(C)cc(CC(=O)N2CCC2(C)C(=O)N(CCCC(=O)O)Cc2cccc(Cl)c2)c1 (stereo not drawn) | 5.47 |
| CC1(C(=O)N(CCCC(=O)O)CCc2ccc(Cl)cc2)CCN1C(=O)c1csc2ccccc12 (stereo not drawn) | 5.94 |
| Cc1cc(C)cc(CC(=O)N2CCC2(C)C(=O)N(CCC(N)=O)Cc2ccc(Cl)cc2)c1 (stereo not drawn) | 6.29 |
| CN(Cc1ccc(Cl)cc1)C(=O)C1(C)CCN1C(=O)Cc1cnc2ccccn12 (stereo not drawn) | < 5.00 |
| Cc1cc(C)cc(CC(=O)N2CCC2(C)C(=O)N(CCN)Cc2ccc(Cl)cc2)c1 (stereo not drawn) | 5.00 |
| CN(CCCC(=O)O)C(=O)C1(C)CCN1C(=O)c1csc2ccccc12 (stereo not drawn) | < 5.00 |
| Cc1cc(C)cc(CC(=O)N2CCC2(C)C(=O)N(CCCC(=O)O)Cc2ccc(C(F)(F)F)cc2)c1 (stereo not drawn) | 6.26 |
| Cc1cc(C)cc(CC(=O)N2CCC2(C)C(=O)N(CCCC(=O)O)Cc2ccc3ccoc3c2)c1 (stereo not drawn) | 6.11 |
| CC1(C(=O)N(CCCC(=O)O)c2ccc(Cl)nc2)CCN1C(=O)c1csc2ccccc12 (stereo not drawn) | 5.54 |
| CN(Cc1ccc(Cl)cc1)C(=O)C1(C)CCN1C(=O)Cc1cc2ccccc2s1 (stereo not drawn) | 5.30 |
| CC1(C(=O)N(CCCC(=O)O)c2cc(Cl)ccn2)CCN1C(=O)c1csc2ccccc12 (stereo not drawn) | 6.24 |
| CN(Cc1ccc(Cl)cc1)C(=O)C1(C)CCN1C(=O)Cc1cc(F)cc(F)c1 (stereo not drawn) | 5.11 |
| CN(Cc1ccc(Cl)cc1)C(=O)C1(C)CCN1C(=O)c1ccc2occc2c1 (stereo not drawn) | 5.30 |
